Assay results taken from patent US7226924B2, “Substituted 3,4-dihydro-pyrimido[1,2a]pyrimidines and 3,4-dihydro-pyrazino[1,2a]pyrimidines, and methods for their preparation and use” (priority 2000, dated 2007).

Tests used:
NMDA/MK801-binding site = NMDA/MK801-binding site inhibition; set-up: dose or concentration left out as unconfirmed
Text: (§1) Compounds according to the invention were investigated with respect to their pharmacological properties using methods described by J. P. Devlin in “High throughput screening—the discovery of bioactive substances,” Marcel Dekker, New York, 1997, pages 275 to 453.

μ-opiate receptor = μ-opiate receptor (Homo sapiens, UniProt P35372); assay: μ-opiate receptor binding; conditions: read-out: Ki Value of the μ-opiate Receptor Bond
Chain of μ-opiate receptor (P35372 whole entry, species assumed): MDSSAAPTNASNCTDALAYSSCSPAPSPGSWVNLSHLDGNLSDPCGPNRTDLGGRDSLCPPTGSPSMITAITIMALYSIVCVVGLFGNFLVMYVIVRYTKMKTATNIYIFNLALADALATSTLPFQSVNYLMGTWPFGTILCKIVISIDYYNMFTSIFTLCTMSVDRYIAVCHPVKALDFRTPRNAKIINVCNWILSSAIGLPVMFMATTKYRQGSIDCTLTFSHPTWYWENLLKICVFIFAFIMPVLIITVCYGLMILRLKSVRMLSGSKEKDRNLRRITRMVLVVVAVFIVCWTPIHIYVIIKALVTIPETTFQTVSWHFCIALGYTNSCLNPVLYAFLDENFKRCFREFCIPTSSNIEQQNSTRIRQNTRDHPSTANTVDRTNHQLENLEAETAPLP
Text: as §1

SMILES	% inhibition of NMDA/MK801-binding site (NMDA/MK801-binding site) [%]	Ki (μ-opiate receptor) [nM]
OC1=CC(O)=NC2=NC(c3ccccn3)C3C4C=CC(C4)C3N12 (centres unmarked) [Example 61, 5,8-methano-9-pyridin-2-yl-5,8,84,9-tetrahydro--4bH-1,4a,10-triaza-phenanthrene-2,4-diol]	40	
N#CC1=NC(c2ccccc2)=CN2C1=NC(c1ccccn1)CC2Sc1ccccc1 (centres unmarked) [Example 52, 7-phenyl-4-phenylsulphanyl-2-pyridin-2-yl-3,4--dihydro-2H-pyrazino[1,2a]pyrimidine-9--carbonitrile]	47	1400
BrC1=CN2C(=NC(c3ccccn3)C3CCC=CC32)N=C1 (centres unmarked) [Example 62, 3-bromo-9-pyridin-2-yl-7,8,84,9-tetrahydro--4bH-1,44,10-triaza-phenanthrene]	40	
BrC1=CN2C(=NC(c3ccccn3)CC2Sc2ccccc2)N=C1 (centres unmarked) [Example 53, 7-bromo-4-phenylsulphanyl-2-pyridin-2-yl-3,4--dihydro-2H-pyrimido[1,2a]pyrimidine]	44	2500
NC(=O)C1=NC(Cl)=C(N)N2C1=NC(c1ccccn1)CC2Sc1ccccc1 (centres unmarked) [Example 51, 6-Amino-7-chlor-4-phenylsulphanyl-2-pyridin-2--yl-3,4-dihydro-2H-pyrazino[1,2a]pyrimidin-9--carboxylic acid amide]	40	1400
